Source: ChEMBL document CHEMBL3272121, “Hypolipidemic analogues of ethyl 4-benzyloxybenzoate” (J Med Chem, 1977)

How the values were obtained:
Rattus norvegicus [1] = assay: Toxicity in CFY Sprague-Dawley rat assessed as body weight gain at 0.25% dietary level administered for 7 days relative to control; type: organism-based; conditions: in vivo, po, 168 h
Rattus norvegicus [2] = assay: Toxicity in CFY Sprague-Dawley rat assessed as relative liver weight at 0.25% dietary level administered for 7 days relative to control; type: organism-based; conditions: in vivo, po, 168 h
Rattus norvegicus [3] = assay: Hypolipidemic activity in CFY Sprague-Dawley rat assessed as serum triglyceride level at 0.25% dietary level administered for 7 days relative to control; type: functional
Rattus norvegicus [4] = assay: Hypolipidemic activity in CFY Sprague-Dawley rat assessed as serum cholesterol level at 0.25% dietary level administered for 7 days relative to control; type: functional
Rattus norvegicus [5] = assay: Hypolipidemic activity in CFY Sprague-Dawley rat assessed as liver lipid per gm of liver at 0.25% dietary level administered for 7 days relative to control; type: functional

SMILES	Activity (Rattus norvegicus [1]) [%]	Activity (Rattus norvegicus [2]) [%]	Activity (Rattus norvegicus [3]) [%]	Activity (Rattus norvegicus [4]) [%]	Activity (Rattus norvegicus [5]) [%]
O=C(OC1CCCC1)c1ccc(OCc2ccccc2)cc1	-4	-14	-29	-14	
CCOC(=O)c1ccc(COc2ccc(C(=O)OCC)cc2)cc1	3	-2	-60	-11	
O=C([O-])c1ccc(OCc2ccccc2)cc1.[Na+]	-13	2	-38	-15	12
CCOC(=O)c1ccc(OCc2ccc(OC)cc2)cc1	-52	20	-55	-7	
CCOC(=O)CCCCCc1ccc(OCc2ccccc2)cc1	-7	21	-83	-38	32
CCOC(=O)c1ccccc1OCc1ccccc1	-26	-2	-15	0	
Cc1ccc(COc2ccc(C(=O)O)cc2)cc1	-2	11	-57	-10	
CCOC(=O)CCc1ccc(OCc2ccccc2F)cc1	14	7	-49	-4	
COc1cc(C(C)=O)ccc1OCc1ccccc1	-37	13	-51	5	
CC(=O)c1ccc(OCc2ccccc2)cc1	-11	-6	-46	9	
CCOC(=O)c1ccc(COc2ccccc2)cc1	8	26	-38	-25	3
CCOC(=O)c1cccc(OCc2ccccc2)c1	4	6	-30	4	
CCCCOC(=O)c1ccc(OCc2ccccc2)cc1	-18	4	-47	-10	
CCOC(=O)c1ccc(COc2ccc(OC)cc2)cc1	-19	-4	-57	4	
CCOC(=O)c1ccc(OCc2ccccc2C)cc1	-23	0	-58	-10	
CCCCCCCCCCOC(=O)c1ccc(OCc2ccccc2)cc1	-17	13	-64	-9	
CCOC(=O)c1ccc(COc2ccc(F)cc2)cc1	16	19	-50	-14	
CCOC(=O)c1ccc(COc2ccc(C)cc2C)cc1	0	0	2	3	
CCOC(=O)c1ccc(OCc2ccc(OC)c(OC)c2)cc1	-20	11	-33	-1	
CCOC(=O)c1ccc(COc2ccc(Br)cc2)cc1	3	24	-16	-6	
O=Cc1ccc(OCc2ccc(F)cc2)cc1	16	15	-59	-15	
CCOC(=O)CCc1ccc(OCc2cccc(OC)c2OC)cc1	4	23	-9	7	
O=C(NC1CCCCC1)c1ccc(OCc2ccccc2)cc1	-21	5	-18	-5	
COc1ccccc1COc1ccc(C(=O)O)cc1	3	17	71	-29	
NC(=O)c1ccc(OCc2ccccc2)cc1	-2	13	-63	-1	
CCOC(=O)c1ccc(OCc2cccc(OC)c2)cc1	2	4	-32	-10	
CCCCCCCCCCCCNC(=O)c1ccc(OCc2ccccc2)cc1	2	-5	-11	1	
CCCc1ccc(OCc2ccc(C)cc2)c(OC)c1	-18	33	216	-13	
COc1cc(C(=O)O)ccc1OCc1ccccc1	15	6	-28	0	
